A word on the Ki: it is a measure of affinity in units of concentration, obtained from inhibition or displacement.

The structures appear in SMILES notation.

The target of the experiment is T1, ETA receptor (Rattus norvegicus, UniProt P26684).
T1 construct: evaluated in isolated rat aortic ring; from tissue; host or cells: isolated rat aortic ring
T1 sequence (P26684 21-426): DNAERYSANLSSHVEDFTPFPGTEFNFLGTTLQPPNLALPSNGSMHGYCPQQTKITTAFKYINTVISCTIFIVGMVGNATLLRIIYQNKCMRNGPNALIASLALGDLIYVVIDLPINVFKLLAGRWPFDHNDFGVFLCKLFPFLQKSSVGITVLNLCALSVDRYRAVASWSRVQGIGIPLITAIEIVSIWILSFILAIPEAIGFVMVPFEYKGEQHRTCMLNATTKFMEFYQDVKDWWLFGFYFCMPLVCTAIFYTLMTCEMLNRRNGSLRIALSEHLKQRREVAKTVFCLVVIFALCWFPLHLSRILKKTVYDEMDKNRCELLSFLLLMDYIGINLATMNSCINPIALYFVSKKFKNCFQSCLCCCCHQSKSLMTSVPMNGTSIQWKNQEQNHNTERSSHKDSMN
Nature of the experiment: In vitro evaluation of inhibitory activity against ETA receptor (isolated rat aortic ring, literature procedure). The settings on record: telmisartan as control. It is filed as biochemical. As to the method:
The biological activity of compounds was evaluated in isolated rat aortic ring and in systemic arterial pressure (SAP) of anesthetized rat experiments using the literature procedures in Chinese Pharmacological Bulletin 2008, 24 (11): 1422-1426.
Telmisartan, as an AT1 receptor antagonist approved for marketing by the US FDA in 1998, was used as a control to evaluate the inhibitory activity of AT1 and ETA receptors.
For `CCCCc1nc2c(C)cc(-c3nc4ccccc4n3C)cc2n1Cc1ccc(-c2ccccc2S(=O)(=O)Nc2onc(C)c2C)c(COCC)c1` [Compound 2-5, 4′-((2′-butyl-1,7′-dimethyl-1H,3′H-[2,5′-bibenzo[d]imidazol]-3′-yl)methyl)-N-(3,4-dimethylisoxazol-5-yl)-2′-(ethoxymethyl)-[1,1′-biphenyl]-2-sulfonamide], the Ki came out at 9.2 ± 2.3 nM.
Then `CCOCc1cc(Cn2c(C)nc3c(C)cc(-c4nc5ccccc5n4C)cc32)ccc1-c1ccccc1S(=O)(=O)Nc1noc(C)c1C` [Compound 1-4], with over 102 nM; and `CCCCc1nc2c(C)cc(-c3nc4ccccc4n3C)cc2n1Cc1ccc(-c2ccccc2S(=O)(=O)Nc2noc(C)c2C)c(COCC)c1` [Compound 1-13, 4′-((2′-butyl-1,7′-dimethyl-1H,3′H-[2,5′-bibenzo[d]imidazol]-3′-yl)methyl)-N-(4,5-dimethylisoxazol-3-yl)-2′-(ethoxymethyl)-[1,1′-biphenyl]-2-sulfonamide], with 7.2 ± 2.1 nM.
Then `CCCc1nc2c(C)cc(-c3nc4ccccc4n3C)cc2n1Cc1ccc(-c2ccccc2S(=O)(=O)Nc2noc(C)c2C)c(COCC)c1` [Compound 1-10, 4′-((1,7′-dimethyl-2′-propyl-1H,3′H-[2,5′-bibenzo[d]imidazol]-3′-yl)methyl)-N-(4,5-dimethylisoxazol-3-yl)-2′-(ethoxymethyl)-[1,1′-biphenyl]-2-sulfonamide], with 6.8 ± 1.8 nM; and `CCOCc1cc(Cn2c(CC)nc3c(C)cc(-c4nc5ccccc5n4C)cc32)ccc1-c1ccccc1S(=O)(=O)Nc1noc(C)c1C` [Compound 1-7, N-(4,5-dimethylisoxazol-3-yl)-2′-(ethoxymethyl)-4′-((2′-ethyl-1,7′-dimethyl-1H,3′H-[2,5′-bibenzo[d]imidazol]-3′-yl)methyl)-[1,1′-biphenyl]-2-sulfonamide], with 13.2 ± 3.3 nM; and `CCCc1nc2c(C)cc(-c3nc4ccccc4n3C)cc2n1Cc1ccc(-c2ccccc2C(=O)O)cc1` [Telmisartan, reference compound], with over 103 nM.
Then `CCCc1nc2c(C)cc(-c3nc4ccccc4n3C)cc2n1Cc1ccc(-c2ccccc2S(=O)(=O)Nc2onc(C)c2C)c(COCC)c1` [Compound 2-3, 4′-((1,7′-dimethyl-2′-propyl-1H,3′H-[2,5′-bibenzo[d]imidazol]-3′-yl)methyl)-N-(3,4-dimethylisoxazol-5-yl)-2′-(ethoxymethyl)-[1,1′-biphenyl]-2-sulfonamide], with 8.8 ± 2.2 nM.

Source of the values: patent US20240409532A1, “BIPHENYL SULFONAMIDES AS DUAL ANGIOTENSIN ENDOTHELIN RECEPTOR ANTAGONISTS” (Chongqing Hongyuantang Medicine Co., Ltd., priority 2023, published 2024).
